Data: patent US20100204090A1, “USE OF A PEPTIDE AS A THERAPEUTIC AGENT” (priority 2007, published 2010)
Bridge positions count the residues as written; N and C are the ends. Peptide text beside a SMILES is read from it.

Legend:
[1] = test system: HepG2-2.2.15 cells; assay: Cell viability (dye uptake) in the HBV assay; format: cell-based; details: peptide 10 micrograms per ml, % cell control
[2] = test system: MRC-5 cells; details: human, 6 days
[3] = test system: hepatitis B virus (HBV) ayw strain; assay: HBV replication assay in HepG2-2.2.15 cells (secreted HBV DNA, TaqMan PCR); format: cell-based; details: peptide 10 micrograms per ml; six days; HBV DNA in supernatant, % virus control
[4] = Cell viability (dye uptake) in the HBV assay; format: cell-based; details: human, HepG2-2.2.15 cells (stable line containing HBV ayw genome), peptide 10 micrograms per ml, % cell control
[5] = test system: HCMV strain AD169; assay: HCMV plaque reduction assay in MRC-5 cells; format: cell-based, human cytomegalovirus; details: HCMV AD169 in MRC-5 cells; peptide 10 micrograms per ml; 7-10 days
From the text: Ganciclovir was used as positive control.

[6] = test system: A549 cells; assay: Propidium iodide cell cycle assay; format: cell-based, human; details: peptide 10 micrograms per ml, 24 hours, FACS
[7] = test system: Human Peripheral Blood Mononuclear Cells (PBMC), T cell proliferation; assay: T cell proliferation assay (PHA-stimulated PBMC, 3H-thymidine); format: cell-based; details: peptide 10 micrograms per ml, 3 days plus 12 hours 3H-thymidine
[8] = test system: Human Peripheral Blood Mononuclear Cells (PBMC), B cell proliferation; assay: B cell proliferation assay (SAC plus IL-2 stimulated PBMC, 3H-thymidine); format: cell-based; details: peptide 10 micrograms per ml, 3 days plus 12 hours 3H-thymidine
[9] = test system: RAW 264.7 cells; assay: Phagocytosis assay (Fluorescein-labeled Escherichia coli, flow cytometry); format: cell-based, mouse; details: peptide 10 micrograms per ml, 30 min preincubation, 60 min ingestion
[10] = test system: spleen cells of Ovalbumin-immunized Balb/c mice; assay: Th1/Th2 cytokine profiling assay (Ovalbumin-restimulated spleen cells, CBA kit); format: cell-based, mouse; details: peptide 10 micrograms per ml; Ovalbumin 10 micrograms/ml restimulation; 72 hours
From the text: The Balb/c mice (originated in 1923, it is a popular strain and is used in many different research disciplines. Also classified as an inbred from the production of 20 or more successive brother-sister matings, the Balb/c mouse is albino and small in size) were immunized on Days 1, 15, and 29 with Ovalbumin (Ovalbumin is the main protein found in egg white, commonly used to stimulate an immunological reaction in test animals) in PBS (5 micrograms/injection). On day 50, spleens of the mice were harvested (3 weeks after last boost with Ovalbumin). […] Thereafter, additional Ovalbumin was added to the cells at 10 micrograms/ml for in vitro restimulation of the cells. 72 hours later, cell supernatants were harvested and assayed using the Becton Dickinson Mouse Th1/Th2 Cytokine CBA Kit. This kit can be used to measure Interleukin-2 (IL-2), Interleukin-4 (IL-4), Interleukin-5 (IL-5), Interferon-γ (IFN-γ), and Tumor Necrosis Factor-α (TNF-α) protein levels in a single sample.

[11] = test system: TNF alpha production in PBMC-derived macrophages; assay: TNF alpha production assay (LPS-stimulated macrophages, ELISA); format: cell-based, human; details: peptide 10 micrograms per ml, lipopolysaccharide 200 ng/ml, overnight
From the text: Not stimulated macrophages served as negative background control.

[12] = test system: Primary Human endothelial cells (HUVEC); assay: Endothelial cell migration assay; format: cell-based; details: peptide 10 micrograms per ml, 22 hours
[13] = test system: HUVEC; assay: Endothelial tube formation assay; format: cell-based, human; details: peptide 10 micrograms per ml, 20 hours
From the text: Positive control was vehicle only.

[14] = Cytotoxicity testing in MRC-5 cells (CellTiter 96); details: human, MRC-5 cells (embryonal lung fibroblasts)
[15] = human, cells plus peptide only

In the case of Nc1ccn([C@@H]2CS[C@H](CO)O2)c(=O)n1 [Compound 3TC, Lamivudine, reference compound], the “% Cell viability” value [1] is reported as 95.8%.

For Nc1nc(O)c2ncn(COC(CO)CO)c2n1 [Ganciclovir], the “% Cell viability” value [2] was 100%.

For CC[C@H](C)[C@@H]1NC(=O)CNC(=O)[C@H](CCCNC(=N)N)NC(=O)CNC(=O)[C@@H]2CSSC[C@H](NC1=O)C(=O)N[C@@H](CCCNC(=N)N)C(=O)N[C@H]1CSSC[C@H](NC(=O)[C@H](CCCNC(=N)N)NC(=O)[C@@H]3CSSC[C@H](NC(=O)[C@H]([C@@H](C)CC)NC1=O)C(=O)NCC(=O)N[C@@H](CCCNC(=N)N)C(=O)NCC(=O)N[C@@H]([C@@H](C)CC)C(=O)N3)C(=O)N[C@@H]([C@@H](C)CC)C(=O)N2 [Retrocyclin-1] (cyclo(GICRCICGRGICRCICGR); disulfide 3-16, 5-14, 7-12 (inferred); ring closure inferred), the “% inhibition of HBV replication in HEP G2 cells” value [3] was 72.2%, the viability at 144 h, 10 micrograms per ml [4] was 78.5% and the “% plaque reduction” value [5] was 25.8%. The “Cell cycle analysis G0/G1” value [6] was 55.3, the “Cell cycle analysis G2/M” value [6] was 12.1 and the “Cell cycle analysis S” value [6] was 32.6. For the same molecule, the “% of PHA induced control” value [7] was 81.6%, the “% of SAC/IL2 induced control” value [8] was 85.0% and the “% of control phagocytosis” value [9] was 79.4%. The “IFNγ spleen cells; TH1 response (% of control)” value [10] was 137.6 % of control, the “IL-2 spleen cells (% of control)” value [10] was 157.7 % of control and the “IL-4 spleen cells; TH2 response (% of control)” value [10] was 67.1 % of control. The “IL-5 spleen cells; TH2 response (% of control)” value [10] was 80.7 % of control, the “TNF-a spleen cells; TH1 response (% of control)” value [10] was 152.5 % of control and the “% of LPS induction” value [11] was 115.1%. For the same molecule, the “% inhibition of migration” value [12] was 8%, the “% inhibition of tube formation” value [13] was 100% and the viability at 144 h [14] was 100%. It also gave a viability at 10 micrograms per ml [15] of 89.3%.
